Values of other authors in patent publication US9265822B2 (priority 2009, dated 2016).

System: American isolates of H3N2

| Structure (SMILES) | measured resistance |
| --- | --- |
| NC12CC3CC(CC(C3)C1)C2 [amantadine] | 91% |
| CC(N)C12CC3CC(CC(C3)C1)C2 (centres unmarked) [rimantadine] | 91% |
